The NIST ThermoML archive (doi:10.1021/je400980w)
Numbers after ± are expanded uncertainties.

Conditions: Liquid

vapor or sublimation pressure (420.74 K) | vapor or sublimation pressure (432.29 K) | vapor or sublimation pressure (440.15 K) | vapor or sublimation pressure (420.46 K) | vapor or sublimation pressure (431.49 K) | vapor or sublimation pressure (439.8 K) | Compound
20 ± 2 kPa | 30 ± 2 kPa | 40 ± 2 kPa | – | – | – | OCCO [1,2-ethanediol]
– | – | – | 20 ± 2 kPa | 30 ± 2 kPa | 40 ± 2 kPa | CCC(O)CO (stereo unspecified) [1,2-butanediol]
